Experimental data from EP4471048A1, “PEPTIDE INHIBITORS OF INTERLEUKIN-23 RECEPTOR” (Zealand Pharma A/S, priority 2023, dated 2024).
Like-named read-outs stand apart in the source and are kept apart here.

What was measured:
[1] = Peptide stability in simulated gastric fluid (SGF); type: in vitro ADME; conditions: 37 °C, porcine pepsin; for SGF (% remaining 1 h) / SGF (% remaining 4 h): 10 µM; for SGF (% remaining 1 h) / remaining at 1 h, 10 µM: pH 1.2, 1 h; for SGF (% remaining 4 h) / remaining at 4 h, 10 µM: pH 1.2, 4 h; for remaining at 1 h, 10 µM / remaining at 4 h, 10 µM: pig, simulated gastric fluid (SGF) with porcine pepsin (3.2 g/L), pH 1.2, 10 µM; for remaining at 1 h, 10 µM: read-out: SGF (% remaining 1 h); for remaining at 4 h, 10 µM: read-out: SGF (% remaining 4 h)
In short: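 Peptide incubated at 37 °C with gentle shaking in SGF (NaCl, pH 1.2). Samples centrifuged, diluted and analysed by LC-HRMS; percent remaining at each timepoint from absolute peak areas relative to time zero, with 4 h as the reference point.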

[2] = Peptide stability in simulated intestinal fluid (SIF); type: in vitro ADME; conditions: 37 °C, porcine pancreatin; for SIF (% remaining 1 h) / SIF (% remaining 4 h): 10 µM; for SIF (% remaining 1 h) / remaining at 1 h, 10 µM: pH 6.8, 1 h; for SIF (% remaining 4 h) / remaining at 4 h, 10 µM: pH 6.8, 4 h; for remaining at 1 h, 10 µM / remaining at 4 h, 10 µM: pig; for remaining at 4 h, 10 µM: SAR tables, % peptide remaining, read-out: SIF (% after 4 h)
In short: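 Peptides were incubated at 37 °C with gentle shaking in pH 6.8 potassium phosphate SIF containing porcine pancreatin (10 g/L). Supernatants were analysed by LC-HRMS. Percent remaining at each timepoint, including 4 h, was calculated relative to time zero from absolute peak areas.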

human IL-23R = target: T1, human IL-23R (Homo sapiens, UniProt Q5VWK5); test: biochemical
T1 sequence (Q5VWK5 22-629): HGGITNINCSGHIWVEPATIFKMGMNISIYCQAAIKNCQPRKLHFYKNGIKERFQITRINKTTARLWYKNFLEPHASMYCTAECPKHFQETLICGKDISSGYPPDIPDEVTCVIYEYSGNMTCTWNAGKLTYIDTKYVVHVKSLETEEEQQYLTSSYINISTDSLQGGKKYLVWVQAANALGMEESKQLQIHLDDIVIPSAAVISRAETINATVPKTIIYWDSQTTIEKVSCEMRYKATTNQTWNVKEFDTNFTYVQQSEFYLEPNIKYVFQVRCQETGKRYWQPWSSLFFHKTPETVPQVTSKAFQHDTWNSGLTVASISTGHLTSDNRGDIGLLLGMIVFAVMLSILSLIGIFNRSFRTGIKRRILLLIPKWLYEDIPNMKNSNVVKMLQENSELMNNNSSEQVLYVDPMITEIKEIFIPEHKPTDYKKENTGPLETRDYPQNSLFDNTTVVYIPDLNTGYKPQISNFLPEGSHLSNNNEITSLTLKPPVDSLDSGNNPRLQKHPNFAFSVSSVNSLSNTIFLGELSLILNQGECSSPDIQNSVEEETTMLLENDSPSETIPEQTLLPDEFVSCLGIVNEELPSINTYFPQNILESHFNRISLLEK
In short: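 Membranes from HEK293 cells stably expressing Nluc-tagged human IL-23R were incubated 2 h at room temperature with test compound and a fluorophore-labelled tracer. After substrate addition, loss of BRET (TAMRA over luciferase emission) reported tracer displacement. A 4PL fit gave IC50 values.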

[3] = target: IL-23 mediated signalling (Homo sapiens, UniProt Q5VWK5); test: Functional inhibition of IL-23 mediated STAT3 signalling (phospho-STAT3 MSD) in DB cells; type: cell-based; conditions: for Emax: read-out: hIL-23 (pSTAT3) antagonist % inhibition
In short: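 DB cells preincubated with inhibitor 15 min at 37 °C, then stimulated 90 min with EC80 human IL-23; lysate phospho-STAT3 measured by MSD electrochemiluminescence. Signal normalized to IL-23-alone and buffer controls; IC50 and maximal % inhibition from 4-parameter logistic fit.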

[4] = Table 3-2, maximal inhibitory response, DB cells, hIL-23 at EC80
[5] = SAR tables 2-1 to 2-7, DB cells, hIL-23 at EC80, read-out: IC50 (pSTAT3)

| SIF (% remaining 4 h) [2] [%] | IC50 (human IL-23R) [nM] | IC50 ([3]; Table 3-2, DB cells, hIL-23 at EC80, read-out: hIL-23 (pSTAT3) antagonist IC50) [nM] | Emax [3, 4] [%] | remaining at 1 h, 10 µM [1] [%] | remaining at 4 h, 10 µM [1] [%] | remaining at 1 h, 10 µM [2] [%] | remaining at 4 h, 10 µM [2] [%] | % displacement (hIL-23R NIuc) (human IL-23R) [%] | IC50 [3, 5] [nM] | SMILES | SGF (% remaining 1 h) [1] [%] | SGF (% remaining 4 h) [1] [%] | SIF (% remaining 1 h) [2] [%] | Ki (human IL-23R) [nM] | IC50 [3] [nM] | Emax ([3]; DB) [%] |
| --- | --- | --- | --- | --- | --- | --- | --- | --- | --- | --- | --- | --- | --- | --- | --- | --- |
| 0 | > 1000 | > 1000 | 23 | – | – | – | – | – | – | CSCC[C@H](NC(=O)[C@@H]1CSCC(=O)CSC[C@H](NC(=O)[C@@H](N)CCC(=O)O)C(=O)N[C@@H](Cc2c[nH]c3ccccc23)C(=O)N[C@@H](CC(C)C)C(=O)N[C@H]2CSCC(=O)CSC[C@H](NC(=O)[C@H](CC(N)=O)NC(=O)[C@H](CCCNC(=N)N)NC(=O)[C@H](Cc3ccc(O)cc3)NC(=O)[C@H](Cc3ccc(O)cc3)NC2=O)C(=O)N[C@@H](CC(N)=O)C(=O)N1)C(N)=O (single isomer, unassigned) [I4 (isomer 3), H-EC(4a)WLC(5a)YYRNC(5a)NC(4a)M-[NH2], reference compound] | 99 | 99 | 0 | > 1000 | – | – |
| 5 | 4 | – | 100 | 100 | 101 | 77 | 5 | 100 | 15 | CNC(=O)[C@H](Cc1cccnc1)NC(=O)[C@H](CCN)NC(=O)[C@@H]1CCC(=O)NCCCC[C@@H]2NC(=O)CC[C@H](NC(=O)[C@H](CCC(N)=O)NC(=O)[C@H](Cc3c[nH]c4ccccc34)NC(=O)CNC2=O)C(=O)N[C@@H](Cc2ccc(OCCN)cc2)C(=O)N[C@@H](Cc2ccc3ccccc3c2)C(=O)N[C@@](C)(CC(C)C)C(=O)N1 [Compound 44, K(1c)(6c)^†GWQE(6c)[Y(2-aminoethoxy)][2-Nal][2-Me-Leu]E(1c)[Dab][3-(3-Pyridyl)-Ala]-[NHMe]] | – | – | – | – | – | – |
| 87 | 0.022 | – | 100 | 98 | 103 | 90 | 87 | 100 | 0.058 | CNC(=O)[C@H](Cc1cccnc1)NC(=O)[C@H](CCN)NC(=O)[C@@H]1CCC(=O)NCCCC[C@@H]2NC(=O)CC[C@H](NC(=O)[C@H](CCC(N)=O)NC(=O)[C@H](Cc3c[nH]c4ccccc34)NC(=O)CCNC2=O)C(=O)N[C@@H](Cc2ccc(OCCN)cc2)C(=O)N[C@@H](Cc2ccc3ccccc3c2)C(=O)N[C@@](C)(CC(C)C)C(=O)N1 [Compound 45, K(1c)(6c)^†[3-Aminopropanoyl]WQE(6c)[Y(2-aminoethoxy)][2-Nal][2-Me-Leu]E(1c)[Dab][3-(3-Pyridyl)-Ala]-[NHMe]] | – | – | – | – | – | – |

| SMILES | SIF (% remaining 4 h) [2] [%] | IC50 (human IL-23R) [nM] | IC50 ([3]; Table 3-2, DB cells, hIL-23 at EC80, read-out: hIL-23 (pSTAT3) antagonist IC50) [nM] | Emax [3, 4] [%] | remaining at 1 h, 10 µM [1] [%] | remaining at 4 h, 10 µM [1] [%] | remaining at 1 h, 10 µM [2] [%] | remaining at 4 h, 10 µM [2] [%] | % displacement (hIL-23R NIuc) (human IL-23R) [%] | IC50 [3, 5] [nM] | SGF (% remaining 1 h) [1] [%] | SGF (% remaining 4 h) [1] [%] | SIF (% remaining 1 h) [2] [%] | Ki (human IL-23R) [nM] | IC50 [3] [nM] | Emax ([3]; DB) [%] |
| --- | --- | --- | --- | --- | --- | --- | --- | --- | --- | --- | --- | --- | --- | --- | --- | --- |
| CC(C)C[C@@H]1NC(=O)[C@H](Cc2c[nH]c3ccccc23)NC(=O)[C@H](Cc2c[nH]c3ccccc23)NC(=O)[C@@H]2CSCC(=O)CSC[C@H](NC(=O)[C@H]([C@@H](C)O)NC(=O)[C@@H](NC(=O)CN)CSCC(=O)CSC[C@@H](C(=O)N[C@@H](CO)C(N)=O)NC1=O)C(=O)N[C@@H](Cc1c[nH]c3ccccc13)C(=O)N[C@@H](CCC(=O)O)C(=O)N2 (single isomer, unassigned) [I1 (isomer 3), H-GC(1a)TC(2a)WEC(2a)WWLC(1a)S-[NH2], reference compound] | 0 | 130 | – | – | – | – | – | – | – | – | 92 | 94 | 0 | 104 | > 1000 | 83 |
